Drawing on patent US9809583B2 (priority 2014, dated 2017), this text covers EC50 for 32 compounds.

Structures can show the parent of a compound that is named as a salt.

Chain of androgen receptor (hAR) (P10275 whole entry): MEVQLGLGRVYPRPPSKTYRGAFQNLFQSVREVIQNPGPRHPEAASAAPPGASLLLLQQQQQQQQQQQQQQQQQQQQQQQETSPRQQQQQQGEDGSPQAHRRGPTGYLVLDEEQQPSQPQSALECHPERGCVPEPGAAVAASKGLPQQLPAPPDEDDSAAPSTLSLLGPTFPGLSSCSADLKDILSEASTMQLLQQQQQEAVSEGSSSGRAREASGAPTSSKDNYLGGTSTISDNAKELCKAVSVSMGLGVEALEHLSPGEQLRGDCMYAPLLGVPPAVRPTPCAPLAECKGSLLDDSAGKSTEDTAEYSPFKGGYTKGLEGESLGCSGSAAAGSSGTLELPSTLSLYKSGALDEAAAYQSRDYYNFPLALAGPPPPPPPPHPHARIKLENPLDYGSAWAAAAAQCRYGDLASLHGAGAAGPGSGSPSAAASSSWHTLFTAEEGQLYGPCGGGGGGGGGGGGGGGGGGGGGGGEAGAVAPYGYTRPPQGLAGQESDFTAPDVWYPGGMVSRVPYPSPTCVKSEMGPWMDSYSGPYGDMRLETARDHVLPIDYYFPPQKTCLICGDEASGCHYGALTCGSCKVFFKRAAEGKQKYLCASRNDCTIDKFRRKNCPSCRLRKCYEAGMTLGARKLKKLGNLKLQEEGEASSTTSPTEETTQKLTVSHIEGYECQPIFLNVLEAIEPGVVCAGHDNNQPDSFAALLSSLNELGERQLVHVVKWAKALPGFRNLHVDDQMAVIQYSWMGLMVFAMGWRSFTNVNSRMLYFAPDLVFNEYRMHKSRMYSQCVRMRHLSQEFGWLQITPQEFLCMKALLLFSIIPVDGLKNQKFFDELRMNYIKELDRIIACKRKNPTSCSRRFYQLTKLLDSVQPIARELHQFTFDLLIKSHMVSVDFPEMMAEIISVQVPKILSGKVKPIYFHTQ

One assay addresses androgen receptor (hAR) (Homo sapiens (Human), UniProt P10275). Kind of assay: Test of transcriptional activity (hAR / ARE-Luc dual-luciferase assay in CHO cells). The format is cell-based. The settings on record: CHO cells with hAR and ARE-Luc, 24 hours; 10 nM DHT = 100%; read-out: EC50 [nM] (mean ± SE). As for the experimental part:
In order to examine the transcriptional activity of the agonists of the present invention, the following in-vitro experiment was performed. CHO (Chinese hamster ovary) cell line (ATCC, #CCL-61) was seeded in a 96-well plate at a density of 1.5×10^4 cells/well, and cultured for 24 hours. Then, a plasmid hAR and plasmid ARE-Luc-mixed medium was added thereto. The transfected cell line was treated with 0.1˜10,000 nM of SARM derivatives, and then allowed to react for 24 hours.
As for “(2R,5S)-N-(4-cyanophenyl)-3-(3-methyl-4-nitrophenyl)-2-(trifluoromethyl)oxazolidine-5-carboxamide [Example 111]”, the EC50 (usually the concentration that produces a half-maximal response) was 4.46 nM. Same read-out and setting: the figure for `Cc1cc(N2C[C@@H](COc3ccc(C#N)cc3)O[C@H]2C(F)(F)F)ccc1[N+](=O)[O-]` [Example 82, 4-(((2S,5S)-3-(3-methyl-4-nitrophenyl)-2-(trifluoromethyl)oxazolidin-5-yl)methoxy)benzonitrile] is 21.1 nM; for “(2R,5S)-N-(4-cyano-2-(trifluoromethyl)phenyl)-3-(4-cyano-3-(trifluoromethyl)phenyl)-2-(trifluoromethyl)oxazolidine-5-carboxamide [Example 128]” it is 11.1 nM; for “(2R,5S)-3-(3-chloro-4-nitrophenyl)-N-(4-cyanophenyl)-2-(trifluoromethyl)oxazolidine-5-carboxamide [Example 122]” it is 67.4 nM. As for “(2R,5S)-N-(4-cyano-2-fluorophenyl)-3-(3-methyl-4-nitrophenyl)-2-(trifluoromethyl)oxazolidine-5-carboxamide [Example 113]”, the EC50 was 80.5 nM.

For “(2R,5S)-3-(3-chloro-4-cyanophenyl)-N-(pyridin-4-yl)-2-(trifluoromethyl)oxazolidine-5-carboxamide [Example 121]”, the EC50 was 616 nM. For “(2R,5S)-N-(6-acetamidopyridin-3-yl)-3-(4-cyano-3-(trifluoromethyl)phenyl)-2-(trifluoromethyl)oxazolidine-5-carboxamide [Example 135]”, the concentration giving a half-maximal response (EC50) is 4.95 nM.

Take “(2R,5S)-3-(3-chloro-4-nitrophenyl)-N-(pyridin-4-yl)-2-(trifluoromethyl)oxazolidine-5-carboxamide [Example 126]”: the EC50 turned out to be 1.21 nM. Consider “(2R,5S)-N-(4-acetamidophenyl)-3-(3-chloro-4-cyanophenyl)-2-(trifluoromethyl)oxazolidine-5-carboxamide [Example 118]”, for which the EC50 was found to be 30.4 nM. For the compound `N#Cc1ccc(OC[C@@H]2CN(c3ccc([N+](=O)[O-])c(C(F)(F)F)c3)[C@@H](C(F)(F)F)O2)cn1` [Example 65, 5-(((2R,5S)-3-(4-nitro-3-(trifluoromethyl)phenyl)-2-(trifluoromethyl)oxazolidin-5-yl)methoxy)picolinonitrile], the EC50 came out at 59.5 nM. With `O=[N+]([O-])c1ccc(N2C[C@@H](COc3ccncc3)O[C@@H]2C(F)(F)F)cc1C(F)(F)F` [Example 66, (2R,5S)-3-(4-nitro-3-(trifluoromethyl)phenyl)-5-((pyridin-4-yloxy)methyl)-2-(trifluoromethyl)oxazolidine], the concentration giving a half-maximal response (EC50) stood at 19.9 nM. “(2R,5S)-3-(4-cyano-3-(trifluoromethyl)phenyl)-N-(4-cyano-3-methoxyphenyl)-2-(trifluoromethyl)oxazolidine-5-carboxamide [Example 127]”: the EC50 was 183 nM.

Regarding `O=[N+]([O-])c1ccc(N2C[C@@H](COc3ccc(/C=N/O)cc3)O[C@@H]2C(F)(F)F)cc1C(F)(F)F` [Example 87, (E)-4-(((2R,5S)-3-(4-nitro-3-(trifluoromethyl)phenyl)-2-(trifluoromethyl)oxazolidin-5-yl)methoxy)benzaldehyde oxime], the EC50 worked out at 9.22 nM.

The assay is the same for the next values; noted with them: EC50 [nM] (mean ± SE), CHO cells with hAR and ARE-Luc, 24 hours; 10 nM DHT = 100%.
`N#Cc1ccc(N2C[C@@H](COc3ccc(CN)cc3)O[C@@H]2C(F)(F)F)cc1C(F)(F)F` [Example 89, 4-((2R,5S)-5-((4-(aminomethyl)phenoxy)methyl)-2-(trifluoromethyl)oxazolidin-3-yl)-2-(trifluoromethyl)benzonitrile hydrochloride] registered an EC50 of 34.2 nM. Consider `Cc1c(N2C[C@@H](COc3ccc(C#N)cc3)O[C@@H]2C(F)(F)F)ccc(C#N)c1Cl` [Example 75, 2-chloro-4-((2R,5S)-5-((4-cyanophenoxy)methyl)-2-(trifluoromethyl)oxazolidin-3-yl)-3-methylbenzonitrile], for which the concentration giving a half-maximal response (EC50) worked out at 37 nM.

As for `N#Cc1ccc(NC(=O)[C@@H]2CN(c3ccc(C#N)c(C(F)(F)F)c3)[C@@H](C(F)(F)F)O2)cc1` [Example 138, (2R,5S)-3-(4-cyano-3-(trifluoromethyl)phenyl)-N-(4-cyanophenyl)-2-(trifluoromethyl)oxazolidine-5-carboxamide], the midpoint of the response, the EC50, lay at 17.3 nM. `Cc1c(N2C[C@@H](COc3ccncc3)O[C@@H]2C(F)(F)F)ccc(C#N)c1Cl` [Example 76, 2-chloro-3-methyl-4-((2R,5S)-5-((pyridin-4-yloxy)methyl)-2-(trifluoromethyl)oxazolidin-3-yl)benzonitrile] gave an EC50 of 21.8 nM. On the same count and under the same terms, in the case of `CC(=O)Nc1ccc(NC(=O)[C@@H]2CN(c3ccc(C#N)c(C(F)(F)F)c3)[C@@H](C(F)(F)F)O2)c(F)c1` [Example 106, (2R,5S)-N-(4-acetamido-2-fluorophenyl)-3-(4-cyano-3-(trifluoromethyl)phenyl)-2-(trifluoromethyl)oxazolidine-5-carboxamide] it was 154 nM. Take `CC(C)OC(=O)Nc1ccc(OC[C@@H]2CN(c3ccc(C#N)c(C(F)(F)F)c3)[C@@H](C(F)(F)F)O2)cc1` [Example 42, isopropyl (4-(((2R,5S)-3-(4-cyano-3-(trifluoromethyl)phenyl)-2-(trifluoromethyl)oxazolidin-5-yl)methoxy)phenyl)carbamate]: the response was half-maximal at 514 nM (EC50). As to `N#Cc1ccc(N2C[C@@H](COc3ccncc3)O[C@@H]2C(F)(F)F)cc1Cl` [Example 72, 2-chloro-4-((2R,5S)-5-((pyridin-4-yloxy)methyl)-2-(trifluoromethyl)oxazolidin-3-yl)benzonitrile], the EC50 was determined as 1.03 nM. Turning to `N#Cc1ccc(N2C[C@@H](COc3ccc(NC(=O)CN)cc3)O[C@@H]2C(F)(F)F)cc1C(F)(F)F` [Example 50, 2-amino-N-(4-(((2R,5S)-3-(4-cyano-3-(trifluoromethyl)phenyl)-2-(trifluoromethyl)oxazolidin-5-yl)methoxy)phenyl)acetamide 2,2,2-trifluoroacetate], the response was half-maximal at 15.6 nM (EC50). `N#Cc1ccc(N2C[C@@H](C(=O)N3CCC(N)CC3)O[C@@H]2C(F)(F)F)cc1C(F)(F)F` [Example 175, 4-((2R,5S)-5-(4-aminopiperidine-1-carbonyl)-2-(trifluoromethyl)oxazolidin-3-yl)-2-(trifluoromethyl)benzonitrile hydrochloride] returned a concentration for a half-maximal effect (EC50) of 85.2 nM. Turning to `N#Cc1ccc(N2C[C@@H](C(=O)N3CCN(C#N)CC3)O[C@@H]2C(F)(F)F)cc1C(F)(F)F` [Example 174, 4-((2R,5S)-3-(4-cyano-3-(trifluoromethyl)phenyl)-2-(trifluoromethyl)oxazolidine-5-carbonyl)piperazine-1-carbonitrile], the EC50 amounted to 139 nM.

The compound `N#Cc1ccc(N2C[C@@H](C(=O)N3CCC(C#N)CC3)O[C@@H]2C(F)(F)F)cc1C(F)(F)F` [Example 167] showed an EC50 of 44 nM. For `N#Cc1ccc(OC[C@@H]2CN(c3ccc(C#N)c(Cl)c3)[C@@H](C(F)(F)F)O2)cn1` [Example 73, 5-(((2R,5S)-3-(3-chloro-4-cyanophenyl)-2-(trifluoromethyl)oxazolidin-5-yl)methoxy)picolinonitrile], a half-maximal response (EC50) required 0.991 nM. Consider `N#Cc1ccc(N2C[C@@H](COc3ccc(N4CCCC4=O)cc3)O[C@@H]2C(F)(F)F)cc1C(F)(F)F` [Example 17, 4-((2R,5S)-5-((4-(2-oxopyrrolidin-1-yl)phenoxy)methyl)-2-(trifluoromethyl)oxazolidin-3-yl)-2-(trifluoromethyl)benzonitrile], for which the EC50 came out at 24 nM. `N#Cc1ccc(N2C[C@@H](COc3ccc(CC(=O)O)cc3)O[C@@H]2C(F)(F)F)cc1C(F)(F)F` [Example 52, 2-(4-(((2R,5S)-3-(4-cyano-3-(trifluoromethyl)phenyl)-2-(trifluoromethyl)oxazolidin-5-yl)methoxy)phenyl)acetic acid] showed an EC50 of 759 nM. For `N#Cc1ccc(N2C[C@@H](COc3ccc(NC(=O)[C@@H]4CCCN4)cc3)O[C@@H]2C(F)(F)F)cc1C(F)(F)F` [Example 51, (S)-N-(4-(((2R,5S)-3-(4-cyano-3-(trifluoromethyl)phenyl)-2-(trifluoromethyl)oxazolidin-5-yl)methoxy)phenyl)pyrrolidine-2-carboxamide 2,2,2-trifluoroacetate], the EC50 worked out at 165 nM. In turn, `CC(C)C(=O)Nc1ccc(NC(=O)[C@@H]2CN(c3ccc(C#N)c(C(F)(F)F)c3)[C@@H](C(F)(F)F)O2)cc1` [Example 159, (2R,5S)-3-(4-cyano-3-(trifluoromethyl)phenyl)-N-(4-isobutylamidophenyl)-2-(trifluoromethyl)oxazolidine-5-carboxamide] showed an EC50 of 288 nM. On the same count and under the same terms, in the case of `N#Cc1ccc(N2C[C@@H](COc3ccc(N4CCOC4=O)cc3)O[C@@H]2C(F)(F)F)cc1C(F)(F)F` [Example 38, 4-((2R,5S)-5-((4-(2-oxooxazolidin-3-yl)phenoxy)methyl)-2-(trifluoromethyl)oxazolidin-3-yl)-2-(trifluoromethyl)benzonitrile] it was 165 nM; in that of `N#CCC(=O)Nc1ccc(OC[C@@H]2CN(c3ccc(C#N)c(C(F)(F)F)c3)[C@@H](C(F)(F)F)O2)cc1` [Example 95, 2-cyano-N-(4-(((2R,5S)-3-(4-cyano-3-(trifluoromethyl)phenyl)-2-(trifluoromethyl)oxazolidin-5-yl)methoxy)phenyl)acetamide], 2.81 nM. On the same count and under the same terms, in the case of `N#Cc1ccc(OC[C@@H]2CN(c3ccc(C#N)c(Cl)c3)[C@@H](C(F)(F)F)O2)cc1` [Example 71, 2-chloro-4-((2R,5S)-5-((4-cyanophenoxy)methyl)-2-(trifluoromethyl)oxazolidin-3-yl)benzonitrile] it was 1.57 nM.
